Experimental data as given in patent US20230002367A1, “BIFUNCTIONAL COMPOUNDS” (Hoffmann-La Roche Inc., priority 2019, published 2023).

Biological target: T1, SMARCA2 (Homo sapiens, UniProt P51531)
T1 construct: endogenous in cells
Test: SMARCA2 HiBiT degradation assay (cellular)
Format: cell-based
Conditions: for Emax: A549, Emax = amount of residual protein remaining in the cell following compound treatment; for DC50: SMARCA2 HiBiT cells, luminescence readout, 11-point titration from 10 μM, 6 hours or 16 hours, read-out: HiBit A549 SMARCA2 IP

T1 sequence (P51531 whole entry): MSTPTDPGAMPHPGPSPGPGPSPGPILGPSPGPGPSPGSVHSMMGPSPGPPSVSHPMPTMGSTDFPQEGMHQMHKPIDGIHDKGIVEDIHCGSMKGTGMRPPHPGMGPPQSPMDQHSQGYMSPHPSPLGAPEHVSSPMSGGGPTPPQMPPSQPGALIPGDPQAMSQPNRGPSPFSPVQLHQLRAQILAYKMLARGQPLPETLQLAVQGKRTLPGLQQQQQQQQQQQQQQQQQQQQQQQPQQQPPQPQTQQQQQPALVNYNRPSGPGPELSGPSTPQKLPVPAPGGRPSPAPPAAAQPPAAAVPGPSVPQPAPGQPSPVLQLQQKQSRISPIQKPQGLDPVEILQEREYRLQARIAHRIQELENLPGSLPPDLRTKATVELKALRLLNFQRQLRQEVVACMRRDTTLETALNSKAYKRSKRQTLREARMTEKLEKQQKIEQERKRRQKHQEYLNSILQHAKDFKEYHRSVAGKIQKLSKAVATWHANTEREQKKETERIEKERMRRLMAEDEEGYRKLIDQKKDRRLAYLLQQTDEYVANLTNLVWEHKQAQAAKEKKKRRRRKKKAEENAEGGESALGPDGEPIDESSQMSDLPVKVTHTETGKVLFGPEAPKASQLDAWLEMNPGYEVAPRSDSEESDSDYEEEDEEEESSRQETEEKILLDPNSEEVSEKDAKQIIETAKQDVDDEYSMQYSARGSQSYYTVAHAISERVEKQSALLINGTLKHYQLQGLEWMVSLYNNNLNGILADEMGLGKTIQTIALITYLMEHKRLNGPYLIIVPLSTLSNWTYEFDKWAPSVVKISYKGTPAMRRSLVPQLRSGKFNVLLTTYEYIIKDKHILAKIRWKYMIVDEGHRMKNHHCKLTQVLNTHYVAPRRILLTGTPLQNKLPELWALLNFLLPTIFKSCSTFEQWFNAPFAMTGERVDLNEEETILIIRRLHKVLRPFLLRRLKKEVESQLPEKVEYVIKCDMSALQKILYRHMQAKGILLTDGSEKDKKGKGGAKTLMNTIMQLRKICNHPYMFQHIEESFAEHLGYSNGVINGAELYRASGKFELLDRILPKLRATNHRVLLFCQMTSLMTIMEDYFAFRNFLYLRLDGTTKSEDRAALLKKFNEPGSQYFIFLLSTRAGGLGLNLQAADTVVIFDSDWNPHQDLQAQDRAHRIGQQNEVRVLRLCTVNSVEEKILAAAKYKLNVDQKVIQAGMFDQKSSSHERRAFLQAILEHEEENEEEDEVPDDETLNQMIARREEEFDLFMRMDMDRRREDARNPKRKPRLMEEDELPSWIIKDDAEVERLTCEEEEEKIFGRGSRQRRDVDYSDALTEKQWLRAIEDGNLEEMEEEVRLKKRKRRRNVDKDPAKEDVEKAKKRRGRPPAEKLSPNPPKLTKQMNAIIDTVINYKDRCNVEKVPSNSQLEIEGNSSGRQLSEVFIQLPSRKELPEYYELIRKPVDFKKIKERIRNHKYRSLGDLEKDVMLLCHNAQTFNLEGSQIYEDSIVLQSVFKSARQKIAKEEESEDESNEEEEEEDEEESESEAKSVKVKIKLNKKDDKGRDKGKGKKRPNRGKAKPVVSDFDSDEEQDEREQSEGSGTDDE

SMILES	Emax [%]	DC50 [µM]
Cc1ncsc1-c1ccc(CNC(=O)[C@@H]2C[C@@H](O)CN2C(=O)[C@@H](NC(=O)CCCCCCCCC(=O)N2CCN(CCOc3ccccc3N3C4CCC3CN(c3cc(-c5ccccc5O)nnc3N)C4)CC2)C(C)(C)C)cc1 [Example 55, (2S,4R)-1-[(2S)-2-[[10-[4-[2-[2-[3-[3-amino-6-(2-hydroxyphenyl)pyridazin-4-yl]-3,8-diazabicyclo[3.2.1]octan-8-yl]phenoxy]ethyl]piperazin-1-yl]-10-oxo-decanoyl]amino]-3,3-dimethyl-butanoyl]-4-hydroxy-N-[[4-(4-methylthiazol-5-yl)phenyl]methyl]pyrrolidine-2-carboxamide]	27	2.58
Cc1ncsc1-c1ccc([C@H](C)NC(=O)[C@@H]2C[C@@H](O)CN2C(=O)[C@@H](NC(=O)CCCCCCCCCC(=O)N2CCN(CCOc3cccc(N4C5CCC4CN(c4cc(-c6ccccc6O)nnc4N)C5)c3)CC2)C(C)C)cc1 [Example 56, (2S,4R)-1-[(2S)-2-[[11-[4-[2-[3-[3-[3-amino-6-(2-hydroxyphenyl)pyridazin-4-yl]-3,8-diazabicyclo[3.2.1]octan-8-yl]phenoxy]ethyl]piperazin-1-yl]-11-oxo-undecanoyl]amino]-3-methyl-butanoyl]-4-hydroxy-N-[(1S)-1-[4-(4-methylthiazol-5-yl)phenyl]ethyl]pyrrolidine-2-carboxamide]	20	0.091
Cc1ncsc1-c1ccc([C@H](C)NC(=O)[C@@H]2C[C@@H](O)CN2C(=O)[C@@H](NC(=O)CCCCCC(=O)N2CCN(CCOc3cccc(CCOc4cc(-c5ccccc5O)nnc4N)c3)CC2)C(C)(C)C)cc1 [Example 57, (2S,4R)-1-[(2S)-2-[[7-[4-[2-[3-[2-[3-amino-6-(2-hydroxyphenyl)pyridazin-4-yl]oxyethyl]phenoxy]ethyl]piperazin-1-yl]-7-oxo-heptanoyl]amino]-3,3-dimethyl-butanoyl]-4-hydroxy-N-[(1S)-1-[4-(4-methylthiazol-5-yl)phenyl]ethyl]pyrrolidine-2-carboxamide]	35	0.736
Cc1ncsc1-c1ccc([C@H](C)NC(=O)[C@@H]2C[C@@H](O)CN2C(=O)[C@@H](NC(=O)CCCCCCCCC(=O)N2CCN(CCOc3cccc(CCOc4cc(-c5ccccc5O)nnc4N)c3)CC2)C(C)(C)C)cc1 [Example 58, (2S,4R)-1-[(2S)-2-[[10-[4-[2-[3-[2-[3-amino-6-(2-hydroxyphenyl)pyridazin-4-yl]oxyethyl]phenoxy]ethyl]piperazin-1-yl]-10-oxo-decanoyl]amino]-3,3-dimethyl-butanoyl]-4-hydroxy-N-[(1S)-1-[4-(4-methylthiazol-5-yl)phenyl]ethyl]pyrrolidine-2-carboxamide]	22	0.197
Cc1ncsc1-c1ccc([C@H](C)NC(=O)[C@@H]2C[C@@H](O)CN2C(=O)[C@@H](NC(=O)CCCCCCCCCCC(=O)N2CCN(CCOc3cccc(CCOc4cc(-c5ccccc5O)nnc4N)c3)CC2)C(C)(C)C)cc1 [Example 59, (2S,4R)-1-[(2S)-2-[[12-[4-[2-[3-[2-[3-amino-6-(2-hydroxyphenyl)pyridazin-4-yl]oxyethyl]phenoxy]ethyl]piperazin-1-yl]-12-oxo-dodecanoyl]amino]-3,3-dimethyl-butanoyl]-4-hydroxy-N-[(1S)-1-[4-(4-methylthiazol-5-yl)phenyl]ethyl]pyrrolidine-2-carboxamide]	23	0.305
Cc1ncsc1-c1ccc([C@H](C)NC(=O)[C@@H]2C[C@@H](O)CN2C(=O)[C@@H](NC(=O)CCCCCCCCCCCCC(=O)N2CCN(CCOc3cccc(CCOc4cc(-c5ccccc5O)nnc4N)c3)CC2)C(C)(C)C)cc1 [Example 60, (2S,4R)-1-[(2S)-2-[[14-[4-[2-[3-[2-[3-amino-6-(2-hydroxyphenyl)pyridazin-4-yl]oxyethyl]phenoxy]ethyl]piperazin-1-yl]-14-oxo-tetradecanoyl]amino]-3,3-dimethyl-butanoyl]-4-hydroxy-N-[(1S)-1-[4-(4-methylthiazol-5-yl)phenyl]ethyl]pyrrolidine-2-carboxamide]	24	0.3
Cc1ncsc1-c1ccc(CNC(=O)[C@@H]2C[C@@H](O)CN2C(=O)[C@@H](NC(=O)CCCCCC(=O)N2CCN(Cc3cccc(C#Cc4cc(-c5ccccc5O)nnc4N)c3)CC2)C(C)(C)C)cc1 [Example 61, (2S,4R)-1-[(2S)-2-[[7-[4-[[3-[2-[3-amino-6-(2-hydroxyphenyl)pyridazin-4-yl]ethynyl]phenyl]methyl]piperazin-1-yl]-7-oxo-heptanoyl]amino]-3,3-dimethyl-butanoyl]-4-hydroxy-N-[[4-(4-methylthiazol-5-yl)phenyl]methyl]pyrrolidine-2-carboxamide]	59	0.519
Cc1ncsc1-c1ccc(CNC(=O)[C@@H]2C[C@@H](O)CN2C(=O)[C@@H](NC(=O)CCCCCCCCC(=O)N2CCN(CCOc3ccc(N4C5CCC4CN(c4cc(-c6ccccc6O)nnc4N)C5)cc3)CC2)C(C)(C)C)cc1 [Example 68, (2S,4R)-1-[(2S)-2-[[10-[4-[2-[4-[3-[3-amino-6-(2-hydroxyphenyl)pyridazin-4-yl]-3,8-diazabicyclo[3.2.1]octan-8-yl]phenoxy]ethyl]piperazin-1-yl]-10-oxo-decanoyl]amino]-3,3-dimethyl-butanoyl]-4-hydroxy-N-[[4-(4-methylthiazol-5-yl)phenyl]methyl]pyrrolidine-2-carboxamide]	50	2.32
Cc1ncsc1-c1ccc([C@H](C)NC(=O)[C@@H]2C[C@@H](O)CN2C(=O)[C@@H](NC(=O)CCC(=O)N2CCN(CCOc3cccc(CCOc4cc(-c5ccccc5O)nnc4N)c3)CC2)C(C)(C)C)cc1 [Example 73, (2S,4R)-1-[(2S)-2-[[4-[4-[2-[3-[2-[3-amino-6-(2-hydroxyphenyl)pyridazin-4-yl]oxyethyl]phenoxy]ethyl]piperazin-1-yl]-4-oxo-butanoyl]amino]-3,3-dimethyl-butanoyl]-4-hydroxy-N-[(1S)-1-[4-(4-methylthiazol-5-yl)phenyl]ethyl]pyrrolidine-2-carboxamide]	29	1.65
Cc1ncsc1-c1ccc(CNC(=O)[C@@H]2C[C@@H](O)CN2C(=O)[C@@H](NC(=O)CCCCCCCCC(=O)N2CCN(Cc3cccc(-c4cc(-c5ccccc5O)nnc4N)c3F)CC2)C(C)(C)C)cc1 [Example 74, (2S,4R)-1-[(2S)-2-[[10-[4-[[3-[3-amino-6-(2-hydroxyphenyl)pyridazin-4-yl]-2-fluoro-phenyl]methyl]piperazin-1-yl]-10-oxo-decanoyl]amino]-3,3-dimethyl-butanoyl]-4-hydroxy-N-[[4-(4-methylthiazol-5-yl)phenyl]methyl]pyrrolidine-2-carboxamide]	63	0.575
Cc1ncsc1-c1ccc([C@H](C)NC(=O)[C@@H]2C[C@@H](O)CN2C(=O)[C@@H](NC(=O)CCCCCC(=O)N2CCN(Cc3cccc(OC4CN(c5cc(-c6ccccc6O)nnc5N)C4)c3)CC2)C(C)(C)C)cc1 [Example 83, (2S,4R)-1-[(2S)-2-[[7-[4-[[3-[1-[3-amino-6-(2-hydroxyphenyl)pyridazin-4-yl]azetidin-3-yl]oxyphenyl]methyl]piperazin-1-yl]-7-oxo-heptanoyl]amino]-3,3-dimethyl-butanoyl]-4-hydroxy-N-[(1S)-1-[4-(4-methylthiazol-5-yl)phenyl]ethyl]pyrrolidine-2-carboxamide]	44	0.789
Cc1ncsc1-c1ccc(CNC(=O)[C@@H]2C[C@@H](O)CN2C(=O)[C@@H](NC(=O)CCCCCCCCCCC(=O)N2C3CCC2CN(c2cc(-c4ccccc4O)nnc2N)C3)C(C)(C)C)cc1 [Example 84, (2S,4R)-1-[(2S)-2-[[12-[3-[3-Amino-6-(2-hydroxyphenyl)pyridazin-4-yl]-3,8-diazabicyclo[3.2.1]octan-8-yl]-12-oxo-dodecanoyl]amino]-3,3-dimethyl-butanoyl]-4-hydroxy-N-[[4-(4-methylthiazol-5-yl)phenyl]methyl]pyrrolidine-2-carboxamide]	38	0.902
Cc1ncsc1-c1ccc(CNC(=O)[C@@H]2C[C@@H](O)CN2C(=O)[C@@H](NC(=O)CCCCCC(=O)N2C3CCC2CN(c2cc(-c4ccccc4O)nnc2N)C3)C(C)(C)C)cc1 [Example 85, (2S,4R)-1-[(2S)-2-[[7-[3-[3-Amino-6-(2-hydroxyphenyl)pyridazin-4-yl]-3,8-diazabicyclo[3.2.1]octan-8-yl]-7-oxo-heptanoyl]amino]-3,3-dimethyl-butanoyl]-4-hydroxy-N-[[4-(4-methylthiazol-5-yl)phenyl]methyl]pyrrolidine-2-carboxamide]	31	2.19
Cc1ncsc1-c1ccc([C@H](C)NC(=O)[C@@H]2C[C@@H](O)CN2C(=O)[C@@H](NC(=O)CCCCCCCCC(=O)N2CCN(Cc3cccc(OC4CN(c5cc(-c6ccccc6O)nnc5N)C4)c3)CC2)C(C)(C)C)cc1 [Example 86, (2S,4R)-1-[(2S)-2-[[10-[4-[[3-[1-[3-amino-6-(2-hydroxyphenyl)pyridazin-4-yl]azetidin-3-yl]oxyphenyl]methyl]piperazin-1-yl]-10-oxo-decanoyl]amino]-3,3-dimethyl-butanoyl]-4-hydroxy-N-[(1S)-1-[4-(4-methylthiazol-5-yl)phenyl]ethyl]pyrrolidine-2-carboxamide]	25	0.223
Cc1ncsc1-c1ccc(CNC(=O)[C@@H]2C[C@@H](O)CN2C(=O)[C@@H](NC(=O)CCCCCCCN2CCN(C(=O)CN(C)Cc3ccc(-c4cc(-c5ccccc5O)nnc4N)cc3)CC2)C(C)(C)C)cc1 [Example 87, (2S,4R)-1-[(2S)-2-[8-[4-[2-[[4-[3-amino-6-(2-hydroxyphenyl)pyridazin-4-yl]phenyl]methyl-methyl-amino]acetyl]piperazin-1-yl]octanoylamino]-3,3-dimethyl-butanoyl]-4-hydroxy-N-[[4-(4-methylthiazol-5-yl)phenyl]methyl]pyrrolidine-2-carboxamide]	51	1.3
